For the test, the target named is T1, sGC enzyme (Homo sapiens, UniProt Q02108+Q02153).
T1 construct: sGC enzyme activity values in HEK cells, determined by the GloSensor assay; host or cells: HEK293 cells stably expressing GloSensor 40F cGMP biosensor
T1 sequence (Q02153 1-619): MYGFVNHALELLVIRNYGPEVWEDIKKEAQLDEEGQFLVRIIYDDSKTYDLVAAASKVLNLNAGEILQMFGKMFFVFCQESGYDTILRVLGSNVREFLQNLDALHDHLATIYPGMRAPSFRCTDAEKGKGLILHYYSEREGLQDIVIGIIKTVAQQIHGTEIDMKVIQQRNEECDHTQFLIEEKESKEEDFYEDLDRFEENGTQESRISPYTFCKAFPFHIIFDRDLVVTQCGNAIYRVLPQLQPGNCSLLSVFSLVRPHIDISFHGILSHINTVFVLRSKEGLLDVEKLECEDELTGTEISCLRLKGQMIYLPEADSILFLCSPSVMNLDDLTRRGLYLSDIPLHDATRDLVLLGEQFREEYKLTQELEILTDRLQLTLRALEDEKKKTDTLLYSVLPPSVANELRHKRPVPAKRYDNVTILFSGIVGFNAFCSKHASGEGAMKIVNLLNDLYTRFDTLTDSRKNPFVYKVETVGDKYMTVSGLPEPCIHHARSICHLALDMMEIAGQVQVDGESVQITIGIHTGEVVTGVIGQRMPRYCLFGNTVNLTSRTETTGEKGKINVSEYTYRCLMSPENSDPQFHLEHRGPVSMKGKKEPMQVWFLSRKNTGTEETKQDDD
T1 sequence (Q02108 1-690): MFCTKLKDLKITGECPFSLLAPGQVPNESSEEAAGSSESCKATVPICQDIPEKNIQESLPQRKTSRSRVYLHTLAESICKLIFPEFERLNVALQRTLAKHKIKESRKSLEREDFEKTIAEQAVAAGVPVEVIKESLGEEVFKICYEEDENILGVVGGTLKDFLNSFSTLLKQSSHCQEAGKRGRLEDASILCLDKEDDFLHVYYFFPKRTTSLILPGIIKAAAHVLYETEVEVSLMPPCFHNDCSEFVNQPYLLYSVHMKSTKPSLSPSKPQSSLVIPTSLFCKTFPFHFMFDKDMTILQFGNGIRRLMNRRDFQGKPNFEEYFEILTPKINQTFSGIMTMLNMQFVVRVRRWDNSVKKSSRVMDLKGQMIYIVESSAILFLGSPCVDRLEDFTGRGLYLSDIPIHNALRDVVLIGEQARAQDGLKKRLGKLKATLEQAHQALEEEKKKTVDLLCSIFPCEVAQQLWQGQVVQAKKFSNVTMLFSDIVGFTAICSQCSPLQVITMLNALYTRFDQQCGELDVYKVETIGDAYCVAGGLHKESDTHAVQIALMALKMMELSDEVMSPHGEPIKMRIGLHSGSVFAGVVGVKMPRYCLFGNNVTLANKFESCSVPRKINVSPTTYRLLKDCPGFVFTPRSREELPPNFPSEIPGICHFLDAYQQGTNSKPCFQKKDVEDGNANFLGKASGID
The test can be described thus: cGMP GloSensor cell-based assay, 384-well format (Example 2a). The conditions noted are these: HEK293 GloSensor 40F cGMP cells; 10 μM DETA-NONOate; 50% of high control (30 μM Compound Y); read-out: Abs EC50. The text has this:
Human embryonic kidney cells (HEK293) cells expressing GloSensor™ 40F cGMP (Part No: CS182801, Promega) were used to evaluate the activity of test compounds. The luminescent biosensors (engineered luciferase) that were incorporated into these cells detect cGMP formed by the compounds stimulating the sGC enzyme and emit luminescence.
cGMP GloSensor cells were maintained in Dulbecco's Modification of Eagle's Medium (DMEM) supplemented with fetal bovine serum (FBS, 10% final) and hygromycine (200 ug/ml). The day before assay, cells were plated in DMEM with 10% FBS in a 50 μL volume at a density of 1.5×10^4 cells/well in a poly-D-lysine coated 384-well flat white-bottom plate (Corning Cat No 35661). Cells were incubated overnight at 37° C. in a humidified chamber with 5% CO2. The next day, medium was removed and cells were replaced with 40 ul/well of GloSensor™, 2 mM (Promega Cat No E1291). Cells were treated for 90 minutes at 25° C. to allow the substrate to equilibrate in the cells. Test compounds and Diethylenetriamine NONOate (DETA-NONOate, or DETA-NO) was diluted to 3 mM (20×) in serum-free CO2 independent medium and serially diluted at 4× dilutions to create 5× dose curve from which 10 ul was added to the wells (x μM concentration for test compound solution and 10 μM concentration for DETA-NONOate solution; wherein x is one of the following final concentrations: 30000 nM, 7500 nM, 1875 nM, 468.8 nM, 117.2 nM, 29.29 nM, 7.320 nM, 1.830 nM, 0.460 nM, 0.114 nM, and 0.029 nM).
For the kinetics studies, luminescense was measured right away for 0.2 sec per well with Envision (Perkin Elmer). For endpoint SAR screening, data were collected after 55 min incubation at room temperature.
Data were normalized to a high control using the following equation: 100*(Sample−Low Control)/(High Control−Low Control), where the low control is the average of 16 samples treated with 1% DMSO, and the high control is the average of 16 samples treated with 30 μM of Compound Y depicted below. Data were fit using a 4-parameter fit (log(agonist) vs. response—variable slope) using GraphPad Prism Software v.5. n=2 for all compounds. The Absolute (Abs) EC50 was interpolated from the curve fit and is defined as the concentration at which a given compound elicits 50% of the high control response after data normalization as indicated above. Compounds failing to elicit a minimum response of 50% are reported as >30 μM or ND. For compounds run in duplicate or n higher than 2, the result herein given is the geometric mean of the several results obtained.

Consider `Cc1nc(-c2cn3ccnc3c(Cc3ccccc3F)n2)nn1Cc1ccc(F)cc1` [Compound I-41, 8-(2-Fluorobenzyl)-6-(1-(4-fluorobenzyl)-5-methyl-1H-1,2,4-triazol-3-yl)imidazo[1,2-a]pyrazine], for which the 50% effective concentration (EC50) is no more than 100 nM.

With `Cc1nc(-c2cn3ccnc3c(Cc3ccccc3F)n2)n(Cc2ccc(F)cc2)n1` [Compound I-42, 8-(2-fluorobenzyl)-6-(1-(4-fluorobenzyl)-3-methyl-1H-1,2,4-triazol-5-yl)imidazo[1,2-a]pyrazine], the EC50 was greater than 1000 nM.

For the compound `Cc1nc(-c2cn3ccnc3c(Cc3ccccc3F)n2)nn1Cc1cccc(F)c1` [Compound I-47, 8-(2-Fluorobenzyl)-6-(1-(3-fluorobenzyl)-5-methyl-1H-1,2,4-triazol-3-yl)imidazo[1,2-a]pyrazine], the EC50 was no more than 100 nM.

As to `Cc1nc(-c2cn3ccnc3c(Cc3ccccc3F)n2)nn1CC(=O)C(C)(C)C` [Compound I-48, 1-(3-(8-(2-Fluorobenzyl)imidazo[1,2-a]pyrazin-6-yl)-5-methyl-1H-1,2,4-triazol-1-yl)-3,3-dimethylbutan-2-one], the EC50 is no more than 100 nM.

Turning to `Cc1nc(-c2cn3ccnc3c(Cc3ccccc3F)n2)nn1CCCCF` [Compound I-50, 8-(2-Fluorobenzyl)-6-(1-(4-fluorobutyl)-5-methyl-1H-1,2,4-triazol-3-yl)imidazo[1,2-a]pyrazine], the EC50 was 100 to 1000 nM.

Turning to `Cc1cc(Cn2nc(-c3cn4ccnc4c(Cc4ccccc4F)n3)nc2C)no1` [Compound I-51, 3-((3-(8-(2-Fluorobenzyl)imidazo[1,2-a]pyrazin-6-yl)-5-methyl-1H-1,2,4-triazol-1-yl)methyl)-5-methylisoxazole], the EC50 is no more than 100 nM.

In the case of `CCn1nc(-c2cn3ccnc3c(Cc3ccccc3F)n2)nc1C` [Compound I-53, 6-(1-Ethyl-5-methyl-1H-1,2,4-triazol-3-yl)-8-(2-fluorobenzyl)imidazo[1,2-a]pyrazine], the EC50 fell in the range of 100 to 1000 nM.

As to `Cc1nc(-c2cn3ccnc3c(Cc3ccccc3F)n2)nn1CCC(F)(F)F` [Compound I-54, 8-(2-Fluorobenzyl)-6-(5-methyl-1-(3,3,3-trifluoropropyl)-1H-1,2,4-triazol-3-yl)imidazo[1,2-a]pyrazine], the EC50 fell in the range of 100 to 1000 nM.

Take `CCCCn1nc(-c2cn3ccnc3c(Cc3ccccc3F)n2)nc1C` [Compound I-56, 6-(1-Butyl-5-methyl-1H-1,2,4-triazol-3-yl)-8-(2-fluorobenzyl)imidazo[1,2-a]pyrazine]: the EC50 is no more than 100 nM.

For the compound `Nc1n[nH]c(-c2cn3ccnc3c(Cc3ccccc3F)n2)n1` [Compound I-57, 5-(8-(2-Fluorobenzyl)imidazozo[1,2-a]pyrazin-6-yl)-1H-1,2,4-triazol-3-amine], the EC50 lay in the range of 100 to 1000 nM.

With `Nc1nc(-c2cn3ccnc3c(Cc3ccccc3F)n2)nn1Cc1cccc(F)c1` [Compound I-58, 1-(3-Fluorobenzyl)-3-(8-(2-fluorobenzyl)imidazo[1,2-a]pyrazin-6-yl)-1H-1,2,4-triazol-5-amine], the EC50 is no more than 100 nM.

As to `Nc1nc(-c2cn3ccnc3c(Cc3ccccc3F)n2)nn1CC(F)(F)F` [Compound I-59, 3-(8-(2-Fluorobenzyl)imidazo[1,2-a]pyrazin-6-yl)-1-(2,2,2-trifluoroethyl)-1H-1,2,4-triazol-5-amine], the EC50 was no more than 100 nM.

Consider `Nc1nc(-c2cn3ccnc3c(Cc3ccccc3F)n2)n(CC(F)(F)F)n1` [Compound I-60, 5-(8-(2-fluorobenzyl)imidazo[1,2-a]pyrazin-6-yl)-1-(2,2,2-trifluoroethyl)-1H-1,2,4-triazol-3-amine], for which the EC50 is greater than 1000 nM.

As for `Fc1ccccc1Cc1nc(-c2nc(Cl)n[nH]2)cn2ccnc12` [Compound I-62, 6-(3-Chloro-1H-1,2,4-triazol-5-yl)-8-(2-fluorobenzyl)-imidazo[1,2-a]pyrazine], the EC50 is no more than 100 nM.

Regarding `Fc1ccccc1Cc1nc(-c2nc(-n3ccnc3)n[nH]2)cn2ccnc12` [Compound I-63, 6-(3-(1H-imidazol-1-yl)-1H-1,2,4-triazol-5-yl)-8-(2-fluorobenzyl)imidazo[1,2-a]pyrazine], the concentration for a half-maximal effect (EC50) is 100 to 1000 nM.

For the compound `CN(C)c1n[nH]c(-c2cn3ccnc3c(Cc3ccccc3F)n2)n1` [Compound I-65, 5-(8-(2-fluorobenzyl)imidazo[1,2-a]pyrazin-6-yl)-N,N-dimethyl-1H-1,2,4-triazol-3-amine], the EC50 fell in the range of 100 to 1000 nM.

For `Fc1ccccc1Cc1nc(-c2nc(C(F)(F)F)n[nH]2)cn2c(I)cnc12` [Compound I-66, 8-(2-Fluorobenzyl)-3-iodo-6-(3-(trifluoromethyl)-1H-1,2,4-triazol-5-yl)imidazo[1,2-a]pyrazine], the EC50 is 100 to 1000 nM.

With `Fc1ccccc1Cc1nc(-c2nc(C(F)(F)F)n[nH]2)cn2c(Cl)cnc12` [Compound I-67, 3-Chloro-8-(2-fluorobenzyl)-6-(3-(trifluoromethyl)-1H-1,2,4-triazol-5-yl)imidazo[1,2-a]pyrazine], the EC50 is no more than 100 nM.

For `Fc1ccccc1Cc1nc(-c2nc(C(F)(F)F)n[nH]2)cn2c(F)cnc12` [Compound I-68, 3-Fluoro-8-(2-fluorobenzyl)-6-(3-(trifluoromethyl)-1H-1,2,4-triazol-5-yl)imidazo[1,2-a]pyrazine], the EC50 is no more than 100 nM.

For the compound `N#Cc1cnc2c(Cc3ccccc3F)nc(-c3nc(C(F)(F)F)n[nH]3)cn12` [Compound I-70, 8-(2-Fluorobenzyl)-6-(3-(trifluoromethyl)-1H-1,2,4-triazol-5-yl)imidazo[1,2-a]pyrazine-3-carbonitrile], the 50% effective concentration (EC50) lay in the range of 100 to 1000 nM.

Consider `Cc1cnc2c(Cc3ccccc3F)nc(-c3nc(C(F)(F)F)n[nH]3)cn12` [Compound I-71, 8-(2-Fluorobenzyl)-3-methyl-6-(3-(trifluoromethyl)-1H-1,2,4-triazol-5-yl)imidazo[1,2-a]pyrazine], for which the EC50 was no more than 100 nM.

`Fc1ccccc1Cc1nc(-c2nc(C(F)(F)F)n[nH]2)cn2cnnc12` [Compound I-72, 8-(2-Fluorobenzyl)-6-(3-(trifluoromethyl)-1H-1,2,4-triazol-5-yl)-[1,2,4]triazolo[4,3-a]pyrazine]: the EC50 is greater than 1000 nM.

(Values after US11731977B2, “SGC stimulators” (Cyclerion Therapeutics, Inc., priority 2016, dated 2023).)
